From ChEMBL document CHEMBL1140614, “In silico and in vitro filters for the fast estimation of skin permeation and distribution of new chemical entities” (J Med Chem, 2007) come the findings set out here.

Data set [1] has as its system Zone of skin. Particulars: human.
The conditions of data set [2]: PAMPA, 7 h. A general note: In PAMPA a lipid-coated filter parts donor from acceptor wells.
A short description of data set [3]: physchem. Particulars: octanol/water.
The conditions of data set [4]: octanol/water.

Take `Cc1ccc(C(C)C)c(O)c1` [THYMOL]: the “log Kp” value in data set [1] is listed as -4.83.

On to `Cc1cc(=O)n(-c2ccccc2)n1C` [ANTIPYRINE], for which the “log Kp” value in data set [1] was -7.74.

As for `CN1C(C(=O)Nc2ccccn2)=C(O)c2ccccc2S1(=O)=O` [PIROXICAM], the “log Kp” value in data set [1] is recorded as -6.02.

For the molecule `CCC1(c2ccccc2)C(=O)NC(=O)NC1=O` [PHENOBARBITAL], the “log Kp” value in data set [1] is recorded as -6.9.

As for `c1ccncc1` [PYRIDINE], the “log Pe” value in data set [2] is recorded as -4.35.

As to `O=C(OCc1ccccc1)c1cccnc1` [BENZYL NICOTINATE], the “log Kp” value in data set [1] is recorded as -5.35.

As for `CC(C)NCC(O)COc1cccc2ccccc12` (centres undefined) [PROPRANOLOL], the “log Pe” value in data set [2] is listed as -4.25.

What is called logP is the decadic logarithm of the partition coefficient of the neutral form, usually between octanol and water. Take `C[C@H]1C[C@H]2[C@@H]3CCC4=CC(=O)C=C[C@]4(C)[C@@]3(F)[C@@H](O)C[C@]2(C)[C@@]1(O)C(=O)CO` [BETAMETHASONE]: the logP in data set [3] is 2.01.

As to `COc1ccc2c(c1)c(CC(=O)O)c(C)n2C(=O)c1ccc(Cl)cc1` [INDOMETHACIN], the “log Kp” value in data set [1] is given as -5.39. For the same molecule, the logP in data set [4] is given as 4.27.

Consider `CC(C(=O)O)c1ccc(-c2ccccc2)c(F)c1` (centres undefined) [FLURBIPROFEN], for which, in data set [3], the lipophilicity (logP) was 3.99.

Consider `CN1CCC[C@H]1c1cccnc1` [NICOTINE], for which the “log Kp” value in data set [1] is reported as -5.26. For the same molecule, the “log Pe” value in data set [2] was -4.58.

For `Oc1ccccc1` [PHENOL], the “log Kp” value in data set [1] is on record as -5.64. The “log Pe” value in data set [2] was -4.14.

Turning to `CN[C@@H](C)[C@H](O)c1ccccc1` [EPHEDRINE], the “log Kp” value in data set [1] is -5.75.

On to `Cc1ccccc1O` [ORTHOCRESOL], for which, in data set [1], the “log Kp” value is -5.36. In data set [3], this molecule returned a logP of 1.94.

As for `O=C(O)Cc1ccccc1Nc1c(Cl)cccc1Cl` [DICLOFENAC], in data set [1], the “log Kp” value is listed as -5.3.

`C[C@]12CCC(=O)C=C1CC[C@@H]1[C@@H]2CC[C@@]2(C)[C@H]1CC[C@@]21CCC(=O)O1` [SPRIOLACTONE]: in data set [3], the logP is 2.26.

As for `O=[N+]([O-])c1ccc(O)cc1` [P-NITROPHENOL], the “log Kp” value in data set [1] is -5.81.

As to `CCc1ccc(O)cc1`, the “log Kp” value in data set [1] is recorded as -5.01. This molecule also gave a log partition coefficient (logP) in data set [3] of 2.47.

`Nc1ccc(S(=O)(=O)Nc2ncccn2)cc1` [SULFADIAZINE] showed a lipophilicity (logP) in data set [3] of -0.12. Besides, in data set [2], the “log Pe” value was -6.2.

Take `Oc1ccc2ccccc2c1` [BETANAPHTHOL]: the “log Kp” value in data set [1] is reported as -5.11. Besides, in data set [2], the “log Pe” value is -4.19.

In the case of `O=C(O)c1ccccc1` [BENZOIC ACID], the “log Kp” value in data set [1] was -5.08.

Regarding `c1ccc2cnccc2c1` [ISOQUINOLINE], in data set [1], the “log Kp” value is -5.33.

With `Nc1cc([N+](=O)[O-])ccc1O` [2-AMINO-4-NITROPHENOL], in data set [1], the “log Kp” value is on record as -6.62.

With `O=C(O)c1ccccc1O` [SALYCILIC ACID], the “log Pe” value in data set [2] is -4.16.

In the case of `Cn1c(=O)c2c(ncn2C)n(C)c1=O` [CAFFEINE], in data set [1], the “log Kp” value is given as -7.56. The “log Pe” value in data set [2] was -5.63.

In the case of `Oc1ccc(Cl)cc1` [PARACHLOROPHENOL], the “log Kp” value in data set [1] was -5.

As to `NC(=O)NS(=O)(=O)c1ccc(N)cc1` [SULFACARBAMIDE], the logP in data set [3] is -1.1.

As for `CCNc1nc(Cl)nc(NC(C)C)n1` [ATRAZINE], the “log Kp” value in data set [1] is reported as -5.56.

`Nc1ccc(S(=O)(=O)NC(=O)c2ccccc2)cc1` [SULFABENZAMIDE]: in data set [3], the logP amounted to 1.46.

As for `CC(C(=O)O)c1cccc(C(=O)c2ccccc2)c1` (centres undefined) [KETOPROFEN], in data set [1], the “log Kp” value is recorded as -4.7.

For `COC(=O)c1cccnc1` [METHYL NICOTINATE], the “log Kp” value in data set [1] is -6.04. In addition, the log partition coefficient (logP) in data set [3] came to 0.87.

As for `O=C(O)CCCCc1ccccc1` [5-PHENYLVALERIC ACID], the logP in data set [3] was found to be 2.85.

Regarding `CC(=O)[C@H]1CC[C@H]2[C@@H]3CCC4=CC(=O)CC[C@]4(C)[C@H]3CC[C@]12C` [PROGESTERONE], in data set [1], the “log Kp” value is given as -5.08. The “log Pe” value in data set [2] was -4.56.

`C/C=C(/C(=C/C)c1ccc(O)cc1)c1ccc(O)cc1` [DIENESTROL] displayed a logP in data set [3] of 4.5.
